Columns and labels:
LKB1 = biological target: T1, LKB1 (Homo sapiens, UniProt Q15831); experiment: Kinase profiling; assay type: biochemical
T1 sequence (Q15831 1-433): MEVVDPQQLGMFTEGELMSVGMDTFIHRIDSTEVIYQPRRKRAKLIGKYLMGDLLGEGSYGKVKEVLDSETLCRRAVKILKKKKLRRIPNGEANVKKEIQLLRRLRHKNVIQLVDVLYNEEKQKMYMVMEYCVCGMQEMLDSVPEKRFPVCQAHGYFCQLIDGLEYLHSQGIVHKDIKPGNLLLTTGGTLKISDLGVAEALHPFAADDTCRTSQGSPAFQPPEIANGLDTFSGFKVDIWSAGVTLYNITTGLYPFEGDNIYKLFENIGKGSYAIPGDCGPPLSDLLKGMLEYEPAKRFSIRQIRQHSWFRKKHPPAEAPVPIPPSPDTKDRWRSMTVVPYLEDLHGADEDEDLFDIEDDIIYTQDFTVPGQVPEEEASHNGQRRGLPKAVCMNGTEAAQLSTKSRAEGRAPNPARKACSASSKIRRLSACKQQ
T1 sequence (Q7RTN6 1-431 partner): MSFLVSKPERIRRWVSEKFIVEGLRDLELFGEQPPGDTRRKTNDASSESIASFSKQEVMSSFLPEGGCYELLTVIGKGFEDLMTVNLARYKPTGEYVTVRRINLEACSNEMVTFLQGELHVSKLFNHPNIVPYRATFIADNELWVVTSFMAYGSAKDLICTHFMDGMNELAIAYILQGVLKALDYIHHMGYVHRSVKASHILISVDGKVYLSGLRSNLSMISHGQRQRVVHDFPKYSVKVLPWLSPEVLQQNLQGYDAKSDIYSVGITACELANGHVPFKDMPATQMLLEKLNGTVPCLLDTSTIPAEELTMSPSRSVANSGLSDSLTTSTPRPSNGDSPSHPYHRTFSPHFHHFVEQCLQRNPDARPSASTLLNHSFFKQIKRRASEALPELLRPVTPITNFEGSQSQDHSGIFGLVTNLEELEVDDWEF
T1 sequence (Q9Y376 1-341 partner): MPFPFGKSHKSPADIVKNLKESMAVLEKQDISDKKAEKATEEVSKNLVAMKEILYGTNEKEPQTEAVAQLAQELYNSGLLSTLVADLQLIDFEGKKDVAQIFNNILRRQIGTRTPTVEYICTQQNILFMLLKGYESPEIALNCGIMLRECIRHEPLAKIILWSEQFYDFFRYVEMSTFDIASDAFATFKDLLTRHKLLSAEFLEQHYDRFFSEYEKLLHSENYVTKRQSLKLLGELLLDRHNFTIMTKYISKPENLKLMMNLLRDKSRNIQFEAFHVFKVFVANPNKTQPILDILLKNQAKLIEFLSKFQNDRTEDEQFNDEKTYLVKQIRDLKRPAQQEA

CRTC3 = CRTC3 nuclear translocation (immunofluorescence); assay type: cell-based, mouse; conditions: bone-marrow-derived macrophages, 1 h
Method: Macrophages were seeded on glass coverslips and treated with inhibitors for 1 h. Cells were then fixed for 10 min in 4% paraformaldehyde, permeabilized for 5 min using 0.1% Triton X-100 in PBS and blocked for 45 min using 3% BSA in PBS. Cells were stained with anti-CRTC3 and anti-tubulin followed by Alexa Fluor® […] anti-rabbit and Alexa Fluor® 488-conjugated anti-mouse antibodies respectively. Antibodies were diluted in blocking buffer and incubated with the cells for 45 min. Cells were mounted in Prolong Gold Antifade Reagent containing DAPI (Invitrogen) and visualized under a Zeiss LSM 700 confocal microscope using an Alpha Plan-Apochromat ×100/numerical aperture (NA) 1.46 objective (optical section thickness 0.7 μm). Fields of cells were selected at random using only the DAPI stained channel. Optical sections were taken through the centre of the nuclei, 10 fields collected per coverslip and images were quantified using the Volocity programme (PerkinElmer). Nuclei were identified using the DAPI stained channel, merged objects were separated and the mean intensity of the […] in the nuclear and cytoplasmic regions was measured. For each field, the mean of the nuclear to cytoplasmic intensity ratio was calculated, which was subsequently used to determine the overall mean nuclear to cytoplasmic intensity ratio for each treatment.

EF2K = EF2K (Homo sapiens, UniProt O00418); experiment: Kinase profiling; assay type: biochemical
TSSK1 = biological target: T2, TSSK1 (Homo sapiens, UniProt Q9BXA7); experiment: Kinase profiling; assay type: biochemical
T2 sequence (Q9BXA7 1-367): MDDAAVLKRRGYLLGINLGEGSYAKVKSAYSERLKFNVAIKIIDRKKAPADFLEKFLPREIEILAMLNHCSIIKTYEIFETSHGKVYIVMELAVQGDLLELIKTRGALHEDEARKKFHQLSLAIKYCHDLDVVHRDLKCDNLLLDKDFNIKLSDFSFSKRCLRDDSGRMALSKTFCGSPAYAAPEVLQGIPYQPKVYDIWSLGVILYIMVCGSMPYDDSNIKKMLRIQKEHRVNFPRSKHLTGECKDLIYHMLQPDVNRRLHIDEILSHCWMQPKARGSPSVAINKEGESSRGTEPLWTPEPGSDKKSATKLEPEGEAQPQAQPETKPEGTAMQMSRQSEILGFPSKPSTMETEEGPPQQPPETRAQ

TAK1 = biological target: T3, TAK1 (Homo sapiens, UniProt O43318); experiment: Kinase profiling; assay type: biochemical
T3 sequence (O43318 1-303 limits assumed): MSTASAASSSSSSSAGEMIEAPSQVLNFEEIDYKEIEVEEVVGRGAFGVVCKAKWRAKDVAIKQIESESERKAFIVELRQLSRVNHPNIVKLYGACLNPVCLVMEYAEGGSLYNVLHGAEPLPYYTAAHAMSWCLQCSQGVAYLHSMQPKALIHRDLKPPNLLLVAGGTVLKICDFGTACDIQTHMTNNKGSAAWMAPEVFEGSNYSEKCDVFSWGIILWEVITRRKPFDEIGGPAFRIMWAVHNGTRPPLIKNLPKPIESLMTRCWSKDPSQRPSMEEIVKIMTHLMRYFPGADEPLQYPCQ

MARK2 = MARK2 (Homo sapiens, UniProt Q7KZI7); experiment: Kinase profiling; assay type: biochemical
MARK2, sequence (Q7KZI7 whole entry): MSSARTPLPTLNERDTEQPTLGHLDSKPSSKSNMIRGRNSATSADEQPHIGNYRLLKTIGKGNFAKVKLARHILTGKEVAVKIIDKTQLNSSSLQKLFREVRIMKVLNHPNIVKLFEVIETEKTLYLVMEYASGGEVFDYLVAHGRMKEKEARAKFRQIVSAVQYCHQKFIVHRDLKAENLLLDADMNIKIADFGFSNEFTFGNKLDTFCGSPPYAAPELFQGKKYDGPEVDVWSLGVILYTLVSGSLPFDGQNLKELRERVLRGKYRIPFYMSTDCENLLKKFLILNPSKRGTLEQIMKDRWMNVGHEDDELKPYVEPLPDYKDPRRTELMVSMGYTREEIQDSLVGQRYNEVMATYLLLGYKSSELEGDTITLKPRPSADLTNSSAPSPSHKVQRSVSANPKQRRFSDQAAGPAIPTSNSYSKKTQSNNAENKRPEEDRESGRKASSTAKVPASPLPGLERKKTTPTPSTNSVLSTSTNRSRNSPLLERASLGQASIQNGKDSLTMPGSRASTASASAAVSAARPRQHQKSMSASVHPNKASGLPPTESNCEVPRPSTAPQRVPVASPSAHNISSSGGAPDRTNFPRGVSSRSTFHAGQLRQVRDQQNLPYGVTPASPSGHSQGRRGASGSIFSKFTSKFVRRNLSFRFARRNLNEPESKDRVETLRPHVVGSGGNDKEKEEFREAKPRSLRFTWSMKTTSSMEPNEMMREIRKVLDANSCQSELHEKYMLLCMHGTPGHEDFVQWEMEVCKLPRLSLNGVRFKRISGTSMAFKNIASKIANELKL

Row | SMILES | remaining activity at 0.1 µM (LKB1) [%] | remaining activity at 1 µM (LKB1) [%] | Localization of CRTC3 (CRTC3) | remaining activity at 0.1 µM (EF2K) [%] | remaining activity at 1 µM (EF2K) [%] | remaining activity at 0.1 µM (TSSK1) [%] | remaining activity at 1 µM (TSSK1) [%] | remaining activity at 0.1 µM (TAK1) [%] | remaining activity at 1 µM (TAK1) [%] | remaining activity at 0.1 µM (MARK2) [%] | remaining activity at 1 µM (MARK2) [%]
1 | COc1cc(Nc2c(C#N)cnc3cc(OCCCN4CCN(C)CC4)c(OC)cc23)c(Cl)cc1Cl [Bosutinib, bosutinib] | 84 ± 13 | 104 ± 15 | translocation to the nucleus | 81 ± 2 | 95 ± 6 | 67 ± 1 | 22 ± 2 | 41 ± 9 | 5 | 89 ± 8 | 68 ± 1
2 | Cc1nc(Nc2ncc(C(=O)Nc3c(C)cccc3Cl)s2)cc(N2CCN(CCO)CC2)n1 [Dasatinib] | 96 ± 18 | 100 ± 14 | translocation to the nucleus | 104 ± 4 | 95 ± 5 | 106 ± 11 | 113 ± 3 | 97 ± 23 | 99 ± 7 | 118 ± 4 | 126 ± 2
